Reference: patent EP4374708A1, “NUTRITIONAL SUPPLEMENT PREPARATION” (Avea Life AG, priority 2022, dated 2024)
Values after ≈ are worked out from the molar mass of the structure shown.

Assay: physchem
Settings: water

solubility: 198 mM (≈ 26 mg/mL)
SMILES: O=C(O)[C@@H]1C[C@@H](O)CN1 [hydroxyproline]
